From PubChem BioAssay AID248 (DTP/NCI, 2004)
“And” between values parts separate entries of the source, which are not always exact repeats. Equal entries are not always repeated. Toxic doses and inconclusive results are not listed. Cut-off read from the data, not from the text of the source: active = T/C of 150% or more; inactive = T/C below 125%.

Test system: L1210 leukemia ip in BDF1 mice, survival T/C
Test: NCI In Vivo Anticancer Drug Screen. Data for tumor model L1210 Leukemia (intraperitoneal) in B6D2F1 (BDF1) mice
Conditions: endpoint: mean survival time, higher = longer survival
How it was run: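 Each compound was tested against a transplantable tumor grown in mice. The endpoint was survival, with treated animals benchmarked against vehicle controls as a simple ratio.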

[1] = dose: 100.0 mg/kg/injection, schedule: Q04DX002 (ip), vehicle: saline with Tween-80
[2] = dose: 100.0 mg/kg/injection, schedule: Q04DX003 (ip), vehicle: saline with Tween-80
[3] = dose: 200.0 mg/kg/injection, schedule: Q04DX002 (ip), vehicle: saline with Tween-80
[4] = dose: 200.0 mg/kg/injection, schedule: Q04DX003 (ip), vehicle: saline with Tween-80
[5] = dose: 400.0 mg/kg/injection, schedule: Q04DX002 (ip), vehicle: saline with Tween-80
[6] = dose: 400.0 mg/kg/injection, schedule: Q04DX003 (ip), vehicle: saline with Tween-80
[7] = dose: 100.0 mg/kg/injection, schedule: Q04DX002 (ip), vehicle: saline
[8] = dose: 200.0 mg/kg/injection, schedule: Q04DX002 (ip), vehicle: saline
[9] = dose: 400.0 mg/kg/injection, schedule: Q04DX002 (ip), vehicle: saline
[10] = dose: 100.0 mg/kg/injection, schedule: Q04DX003 (ip), vehicle: saline
[11] = dose: 200.0 mg/kg/injection, schedule: Q04DX003 (ip), vehicle: saline
[12] = dose: 400.0 mg/kg/injection, schedule: Q04DX003 (ip), vehicle: saline
[13] = dose: 400.0 mg/kg/injection, schedule: Q01DX009 (ip), vehicle: saline
[14] = dose: 100.0 mg/kg/injection, schedule: Q01DX001 (ip), vehicle: saline
[15] = dose: 200.0 mg/kg/injection, schedule: Q01DX001 (ip), vehicle: saline
[16] = dose: 400.0 mg/kg/injection, schedule: Q01DX001 (ip), vehicle: saline
[17] = dose: 100.0 mg/kg/injection, schedule: Q01DX009 (ip), vehicle: saline
[18] = dose: 200.0 mg/kg/injection, schedule: Q01DX009 (ip), vehicle: saline
[19] = dose: 75.0 mg/kg/injection, schedule: Q01DX001 (ip), vehicle: other
[20] = dose: 100.0 mg/kg/injection, schedule: Q04DX002 (ip), vehicle: Klucel (hydroxypropylcellulose) (HPC)
[21] = dose: 200.0 mg/kg/injection, schedule: Q04DX002 (ip), vehicle: Klucel (hydroxypropylcellulose) (HPC)
[22] = dose: 400.0 mg/kg/injection, schedule: Q04DX002 (ip), vehicle: Klucel (hydroxypropylcellulose) (HPC)
[23] = dose: 100.0 mg/kg/injection, schedule: Q01DX009 (ip), vehicle: saline with Tween-80
[24] = dose: 200.0 mg/kg/injection, schedule: Q01DX009 (ip), vehicle: saline with Tween-80
[25] = dose: 400.0 mg/kg/injection, schedule: Q01DX009 (ip), vehicle: saline with Tween-80
[26] = dose: 100.0 mg/kg/injection, schedule: Q04DX003 (ip), vehicle: Klucel (hydroxypropylcellulose) (HPC)
[27] = dose: 200.0 mg/kg/injection, schedule: Q04DX003 (ip), vehicle: Klucel (hydroxypropylcellulose) (HPC)
[28] = dose: 400.0 mg/kg/injection, schedule: Q04DX003 (ip), vehicle: Klucel (hydroxypropylcellulose) (HPC)

Measured: T/C

CCN(C(=O)c1ccccc1C)C(c1ccccc1)P(=O)(c1ccccc1)c1ccccc1 (stereo not given)
inactive: dose: 100.0 mg/kg/injection, schedule: Q01DX001 (ip), vehicle: saline with Tween-80 118 % of control | [1] 98 % of control and 100 % of control | [2] 109 % of control and 86 % of control | dose: 200.0 mg/kg/injection, schedule: Q01DX001 (ip), vehicle: saline with Tween-80 100 % of control | [3] 93 % of control and 102 % of control | [4] 94 % of control and 96 % of control | dose: 400.0 mg/kg/injection, schedule: Q01DX001 (ip), vehicle: saline with Tween-80 97 % of control | [5] 93 % of control and 90 % of control | [6] 93 % of control and 112 % of control

NC1CC(=O)NC1=O (stereo not given)
inactive: [7] 93 % of control | [8] 100 % of control | [9] 100 % of control

CC1CCC(C(C)C)=C(C2CCCCC2)C1 (stereo not given)
inactive: [10] 98 % of control | [11] 104 % of control | [12] 87 % of control

CCCN(CCC)N=Nc1c(C(=O)OC)n[nH]c1C
inactive: dose: 50.0 mg/kg/injection, schedule: Q04DX003 (ip), vehicle: saline with Tween-80 103 % of control | [2] 104 % of control and 109 % of control | dose: 175.0 mg/kg/injection, schedule: Q01DX009 (ip), vehicle: saline 124 % of control | [4] 104 % of control and 109 % of control | [13] 96 % of control | [6] 102 % of control

CCCOS(C)(=O)=O
inactive: [14] 100 % of control | [15] 100 % of control | [16] 100 % of control

C=CCN(CC=C)P(=O)(OCC)OCC
inactive: dose: 12.5 mg/kg/injection, schedule: Q04DX003 (ip), vehicle: saline 105 % of control | dose: 25.0 mg/kg/injection, schedule: Q01DX009 (ip), vehicle: saline 97 % of control and 100 % of control | dose: 25.0 mg/kg/injection, schedule: Q04DX003 (ip), vehicle: saline 112 % of control | dose: 50.0 mg/kg/injection, schedule: Q01DX009 (ip), vehicle: saline 98 % of control and 105 % of control | dose: 50.0 mg/kg/injection, schedule: Q04DX003 (ip), vehicle: saline 108 % of control | [17] 104 % of control and 91 % of control | [10] 105 % of control | [18] 97 % of control and 92 % of control | [11] 94 % of control

Cc1cc(Cl)c2ccccc2n1
inactive: dose: 37.5 mg/kg/injection, schedule: Q04DX003 (ip), vehicle: saline 103 % of control | [19] 108 % of control | dose: 75.0 mg/kg/injection, schedule: Q04DX003 (ip), vehicle: saline 95 % of control

CCCCCc1nc2c(c(=O)n(C)c(=O)n2C)n1C
inactive: dose: 50.0 mg/kg/injection, schedule: Q01DX001 (ip), vehicle: saline 112 % of control | [14] 100 % of control | [15] 102 % of control | [16] 106 % of control

ClC1=C(Cl)C(Cl)(Cl)SS1
inactive: dose: 9.5 mg/kg/injection, schedule: Q01DX001 (ip), vehicle: other 100 % of control | dose: 10.0 mg/kg/injection, schedule: Q04DX003 (ip), vehicle: other 100 % of control | dose: 19.0 mg/kg/injection, schedule: Q01DX001 (ip), vehicle: other 103 % of control | dose: 20.0 mg/kg/injection, schedule: Q04DX003 (ip), vehicle: other 92 % of control | dose: 38.0 mg/kg/injection, schedule: Q01DX001 (ip), vehicle: other 91 % of control | dose: 40.0 mg/kg/injection, schedule: Q04DX003 (ip), vehicle: other 89 % of control | [19] 93 % of control

Cc1cccc(CO)n1
inactive: [17] 106 % of control | [10] 110 % of control | [18] 108 % of control | [11] 110 % of control | [13] 103 % of control | [12] 103 % of control

O=C(c1ccc(C(=O)Nc2cccc3ccccc23)c(C(=O)O)c1)c1ccc(C(=O)Nc2cccc3ccccc23)c(C(=O)O)c1
inactive: [20] 97 % of control | [21] 94 % of control | [22] 94 % of control

O=C(Nc1cccnc1)C1=Cc2ccccc2OC1
inactive: [23] 95 % of control | [2] 103 % of control | [24] 94 % of control | [4] 98 % of control | [25] 105 % of control | [6] 107 % of control

Cc1ccc(C(=O)n2c(Cl)c(/C=N/NC(N)=S)c3ccccc32)cc1
inactive: dose: 50.0 mg/kg/injection, schedule: Q04DX002 (ip), vehicle: Klucel (hydroxypropylcellulose) (HPC) 87 % of control | [20] 95 % of control

N#Cc1cc(C(N)=O)c(N)nc1SCc1ccccc1
inactive: dose: 50.0 mg/kg/injection, schedule: Q01DX001 (ip), vehicle: Klucel (hydroxypropylcellulose) (HPC) 94 % of control | dose: 100.0 mg/kg/injection, schedule: Q01DX001 (ip), vehicle: Klucel (hydroxypropylcellulose) (HPC) 86 % of control | dose: 200.0 mg/kg/injection, schedule: Q01DX001 (ip), vehicle: Klucel (hydroxypropylcellulose) (HPC) 91 % of control

CN(C)CCCNc1cc2c3ccccc3ncc2c2ccccc12
inactive: [23] 98 % of control | [2] 108 % of control | [24] 93 % of control | [4] 113 % of control | [25] 108 % of control | [6] 101 % of control

CCCCOCCOCCOC(C)Oc1ccc(C(=O)OC)cc1 (stereo not given)
inactive: [7] 92 % of control | [8] 99 % of control | [9] 101 % of control

O=C1c2cc(Br)ccc2-c2cc(Br)c(NC(=O)C(F)(F)F)c(Br)c21
inactive: dose: 100.0 mg/kg/injection, schedule: Q01DX001 (ip), vehicle: carboxymethylcellulose (CMC) 92 % of control | dose: 200.0 mg/kg/injection, schedule: Q01DX001 (ip), vehicle: carboxymethylcellulose (CMC) 108 % of control | dose: 400.0 mg/kg/injection, schedule: Q01DX001 (ip), vehicle: carboxymethylcellulose (CMC) 99 % of control

CN(C)c1ccc(/C=C/c2ccc3ccccc3n2)c(F)c1
inactive: [26] 100 % of control | [27] 98 % of control | [28] 93 % of control

NC(=O)C(N)CCCN=C(N)N (stereo not given)
inactive: dose: 37.5 mg/kg/injection, schedule: Q01DX001 (ip), vehicle: Klucel (hydroxypropylcellulose) (HPC) 103 % of control | dose: 75.0 mg/kg/injection, schedule: Q01DX001 (ip), vehicle: Klucel (hydroxypropylcellulose) (HPC) 116 % of control | dose: 150.0 mg/kg/injection, schedule: Q01DX001 (ip), vehicle: Klucel (hydroxypropylcellulose) (HPC) 100 % of control

O=[N+]([O-])c1ccc2sc3ccccc3c2c1
inactive: [20] 108 % of control | [21] 97 % of control | [22] 101 % of control

C[C@]12CCC(=O)C=C1CC[C@@H]1[C@@H]2[C@@H](O)C[C@@]2(C)[C@H]1CC[C@]2(O)C(=O)COC(=O)COCC(=O)O
inactive: dose: 100.0 mg/kg/injection, schedule: Q04DX003 (sc), vehicle: Klucel (hydroxypropylcellulose) (HPC) 101 % of control | dose: 200.0 mg/kg/injection, schedule: Q04DX003 (sc), vehicle: Klucel (hydroxypropylcellulose) (HPC) 102 % of control | dose: 400.0 mg/kg/injection, schedule: Q04DX003 (sc), vehicle: Klucel (hydroxypropylcellulose) (HPC) 101 % of control

CC(=O)OC1CCC2(C)C(CCC3C2CCC2(C)C(C(C)CCO)CCC32)C1 (stereo not given)
inactive: dose: 100.0 mg/kg/injection, schedule: Q04DX003 (sc), vehicle: steriod suspending solution 95 % of control | dose: 200.0 mg/kg/injection, schedule: Q04DX003 (sc), vehicle: steriod suspending solution 104 % of control | dose: 400.0 mg/kg/injection, schedule: Q04DX003 (sc), vehicle: steriod suspending solution 100 % of control

CC1CC(NC(=S)NC(=O)c2ccccc2Cl)CC(C)(C)C1 (stereo not given)
inactive: [1] 98 % of control | [3] 113 % of control | [5] 102 % of control

CN1C(=O)OC2(CCN(Cc3ccc([N+](=O)[O-])o3)CC2)C1=O
inactive: [26] 98 % of control | [27] 96 % of control | [28] 98 % of control
